# Measurements as given in patent US8674113B2, “Compounds” (Boehringer Ingelheim International GmbH, priority 2010, dated 2014).
# Where two headings read alike, the source gives them in different places.
# Tests used:
# [1] = target: mPGES-1 in A549 cells (Homo sapiens (Human), UniProt O14684); test: A549 cell-based assay (PGE2 formation, 50% human serum)
# Procedure: Although the enzymatic assay is a high throughput assay the disadvantage is that it uses a recombinant protein which is not in its natural environment. Accordingly a cellular assay was established in which a cell line of human origin (A549) expressing the mPGES-1 protein was used. In addition in order to mimic the situation in humans in which compounds can be bound to plasma proteins 50% human serum is added in the assay.
# A549 cells (ATCC: CCL-185) are grown to about 90% confluence in F-12K Nutrient Mixture (Kaighn's Mod. Gibco) containing 10% FBS in a humified incubator at 37° C. and 5% CO2. Cells were detached using Trypsin-EDTA. A549 cells were seeded in a 384-well collagene plate at a density of 7000 cells/well (50 μl) in F-12 medium containing 1% Penicillin-Streptomycin and 50% human serum. The cells were allowed to attach for 3-4 h. After that the cells were incubated for 20-24 h in F-12k medium supplemented with 50% human serum, 1% Penicillin-Streptomycin and containing IL-1β at a final concentration of 5 ng/ml as well as 10 nM arachidonic acid in the presence of a vehicle or a test compound. The total volume is 100 μl.
# Concentrations of PGE2 in the cell free medium (10 μl) were measured using a commercially available HTRF kit from Cisbio (as described above). The PGE2 formation in the absence of test compound was taken as 100%.
# IC50 values were derived from at 6-8 point titrations using conventional software.
# [2] = target: recombinant human mPGES-1 (Homo sapiens (Human), UniProt O14684); test: mPGES-1 enzyme assay (HTRF detection of PGE2); format: biochemical
# Procedure: Microsomes from Rosetta E. coli bacteria expressing recombinant human mPGES-1 can be derived as described below:
# Inoculate 5 ml LB with Ampicilin (50 μg/ml) and Chloramphenicol (34 μg/ml) with bacteria from freeze culture. Incubate 8 h at 37° C. with 200 rpm. Thereafter, inoculate 500-1000 ml LB containing Amp and Chloro with the 5 ml on culture and grow to OD640 of 0.8-1.0. Chill the culture to +4° C. before induction. Induce the culture with IPTG at a final concentration of 400 μM. Express the protein at room temp 18-23° C. with 200 rpm shaking over night.
# The following steps can be performed on the following day: • 1. Spin down the cells in 250 ml centrifuge flasks for 15 min at 7000 rpm (Beckmann Coulte Avanti J-E centrifuge) • 2. Dissolve the pellet from 250 ml culture in 12.5 ml homogenization buffer • 3. (15 mM Tris-HCL pH8, 1 mM EDTA pH8, […], 2.5 mM GSH, 1 Tablet Protease inhibitor per 50 ml buffer) • 4. Disintegrate the cells by sonication, 5×10 seconds at 48% amplitude of a 750 W sonifier • 5. Add 2.5 ml MgCl2 (100 mM) and DNase 12.5 μl (0.8 mg/ml) and incubate on ice for 30 min • 6. Spin down the bacteria debris and save the supernatant, 7000 rpm for 15 min • 7. Isolate the protein containing membranes in the supernatant by ultracentrifugation 120000×g for 2 hour at 4° C. (Sorvall T880 rotor). • 8. Discard the supernatant and dissolve the pellet in 20 mM Potassium phosphate buffer pH7.4 (KH2PO4 and K2HPO4) buffer by sonication (5×10 s, 30% of a 50 W sonifier) and aliquot the enzyme and store aliquots at −80° C.
# Before each experiment is performed an aliquot of the enzyme is thawed and it can then be dissolved in 0.1 M Potassium phosphate buffer pH7.4 (KH2PO4 and K2HPO4) buffer containing 2.5 mM GSH.
# The aim of this assay is to determine the affinity of a test compound for the mPGES-1 enzyme.
# 47 μl of recombinant human mPGES-1 (˜0.5 μg protein/well) containing microsomal suspension in a buffer containing GSH, (2.5 mmol/L L-Glutathione reduced, dissolved in 0.1 mol/L Phosphat Buffer pH 7.4) is dispensed in a 384-well plate and thereafter 1 μl of the test compound(s) is/are added and incubated for 25 minutes at room temperature. The enzyme reaction is started by the addition of 2 ul PGH2 (final conc 2 μM) disolved in water-free Diglyme. After 60 seconds the reaction is terminated by addition of a stop solution containing FeCl2 (10 μL 0.074 mol/l FeCl2). The samples are diluted between 1:25 in PBS (Phosphate Buffered Saline). 10 μl of the diluted samples are transferred to 384-well low volume plate. In order to quantify the amount of PGE2 that has been formed, a homogenous time resolved fluorescent (HTRF) detecting of PGE2 has been performed using a commercially available kit from Cisbio according to the manufactures recommendation. This HTRF-based assay has been described in detail (see: Goedken et al., J Biomol Screen, 2008, 13(7), 619-625). Briefly, the diluted samples are mixed with 5 μl PGE2-d2 conjugate and 5 μl anti-PGE2 cryptate conjugate. After an incubation period of the plates over night, the fluorescence is measured by the use of an appropriate microplate reader.
# The fluorescence of Europium cryptate (maxex=307 nm, maxem=620 nm) and d2-PGE2 (maxex=620 nm, maxem=665 nm) are measured.
# The extent of the specific HTRF is measured as a ratio of the emission intensity at 665 nm vs. that at 620 nm at an excitation puts of 320 nm. The quantification plate contains also wells with different concentrations of PGE2 as calibration curve for the calculation of the PGE2 concentrations from the HTRF ratio values.
# From all mPGES enzyme assay the background is subtracted and the IC50 is calculated over a nonlinear regression with conventional software.
# [3] = IL-1β 5 ng/ml, 10 nM arachidonic acid, 20-24 h, read-out: mPGES-1 inhibitory effect IC50 in the cell assay
# [4] = recombinant human mPGES-1 microsomes, PGH2 2 μM, 60 seconds, read-out: mPGES-1 inhibitory effect IC50 in the enzyme assay
# [5] = Table C comparison of selected benzimidazoles, read-out: Cell IC50
# [6] = Table C comparison of selected benzimidazoles, read-out: Enzym IC50
# Chain of mPGES-1 in A549 cells (O14684 whole entry): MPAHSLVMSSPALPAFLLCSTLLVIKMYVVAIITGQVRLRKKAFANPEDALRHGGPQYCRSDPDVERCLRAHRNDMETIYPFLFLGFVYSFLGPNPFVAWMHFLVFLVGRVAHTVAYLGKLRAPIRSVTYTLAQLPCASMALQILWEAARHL
# Chain of recombinant human mPGES-1 (O14684 whole entry): as above
SMILES,"IC50 [1, 3] [nM]","IC50 [2, 4] [nM]","IC50 [1, 5] [nM]","IC50 [2, 6] [nM]"
"Cn1c(Nc2c(Cl)ccc(CNC(=O)C(C)(C)C)c2Cl)nc2cc(C(=O)Nc3ccc(F)c(Cl)c3)c(N3CCC(F)CC3)cc21 [Example 1, N-(4-Fluoro-3-chloro-phenyl)-2-{2,6-dichloro-3-[(2,2-dimethyl-propionylamino)-methyl]-phenylamino}-6-(4-fluoro-piperidinyl)-1-methyl-1H-benzimidazole-5-carboxylic acid amide]",1,2,–,–
"CN(CC(F)F)c1cc2c(cc1C(=O)Nc1ccc(F)c(Cl)c1)nc(Nc1c(Cl)ccc(CNC(=O)C(C)(C)C)c1Cl)n2C [Example 2, N-(4-Fluoro-3-chloro-phenyl)-2-{2,6-dichloro-3-[(2,2-dimethyl-propionylamino)-methyl]-phenylamino}-6-[N-methyl-N-(2,2-difluoroethyl)-amino]-1-methyl-1H-benzimidazole-5-carboxylic acid amide]",< 1,2,< 1,2
"Cn1c(Nc2c(Cl)ccc(CNC(=O)C(C)(C)C)c2Cl)nc2cc(C(=O)N[C@H]3CC[C@H](C(F)(F)F)CC3)c(NC3CC(F)(F)C3)cc21 [Example 4, N-(trans-4-Trifluoromethyl-cyclohexyl)-2-{2,6-dichloro-3-[(2,2-dimethyl-propionylamino)-methyl]-phenylamino}-6-[3,3-difluoro-cyclobutylamino]-1-methyl-1H-benzimidazole-5-carboxylic acid amide]",20,5,–,–
CC(C)(C)C(=O)NCc1ccc(Cl)c(Nc2nc3cc(C(=O)NCC(F)(F)F)c(N4CCC(F)CC4)cc3[nH]2)c1Cl [Example 11],3,3,–,–
Cn1c(Nc2c(Cl)ccc(CNC(=O)C(C)(C)C)c2Cl)nc2cc(C(=O)Nc3ccc(F)c(Cl)c3)c(NC3CC(F)(F)C3)cc21 [Example 15],23,4,–,–
Cn1c(Nc2c(Cl)ccc(CNC(=O)C(C)(C)C)c2Cl)nc2cc(C(=O)Nc3ccc(F)c(Cl)c3)c(NCC(F)F)cc21 [Example 17],6,3,6,3
CN(c1cc2c(cc1C(=O)NCC(F)(F)F)nc(Nc1c(Cl)ccc(CNC(=O)C(C)(C)C)c1Cl)n2C)C1CC1 [Example 23],1,4,–,–
"Cn1c(Nc2c(Cl)ccc(CNC(=O)C(C)(C)C)c2Cl)nc2cc(C(=O)NCC(F)(F)F)c(N3CCC(F)(F)C3)cc21 [Example 26, N-(2,2,2-Trifluoroethyl)-2-{2,6-dichloro-3-[(2,2-dimethyl-propionylamino)-methyl]-phenylamino}-6-[3,3-difluoro-pyrrolidinyl]-1-methyl-1H-benzimidazole-5-carboxylic acid amide]",3.6,3,–,–
CN(c1cc2c(cc1C(=O)NCC(F)(F)F)nc(Nc1c(Cl)ccc(CNC(=O)C(C)(C)C)c1Cl)n2C)C1CCCC1 [Example 27],2,2,–,–
Cn1c(Nc2c(Cl)ccc(CNC(=O)C(C)(C)C)c2Cl)nc2cc(C(=O)NCC(F)(F)F)c(N3CCC(C(F)(F)F)CC3)cc21 [Example 28],1.5,2,–,–

# Next, values leading:
"IC50 [1, 3] [nM]","IC50 [2, 4] [nM]","IC50 [1, 5] [nM]","IC50 [2, 6] [nM]",SMILES
39,2,–,–,"CC(C)(C)C(=O)NCc1ccc(F)c(Nc2nc3cc(C(=O)N[C@H]4CC[C@H](C(F)(F)F)CC4)c(N4CCC(F)CC4)cc3[nH]2)c1F [Example 5, N-(trans-4-Trifluoromethyl-cyclohexyl)-2-{2,6-difluoro-3[(2,2-dimethyl-propionylamino)-methyl]-phenylamino}-6-[4-fluoro-piperidinyl]-1H-benzimidazole-5-carboxylic acid amide]"
1,2,–,–,Cn1c(Nc2c(Cl)ccc(CNC(=O)C(C)(C)C)c2Cl)nc2cc(C(=O)NCC(F)(F)F)c(N3CCC(F)CC3)cc21 [Example 10]
3,3,–,–,Cn1c(Nc2c(F)ccc(CNC(=O)C(C)(C)C)c2F)nc2cc(C(=O)N[C@H]3CC[C@H](C(F)(F)F)CC3)c(N3CCC(F)CC3)cc21 [Example 12]
< 1,1,–,–,Cn1c(Nc2c(Cl)ccc(CNC(=O)C(C)(C)C)c2Cl)nc2cc(C(=O)NC3CC(F)(F)C3)c(N3CCC(C(F)(F)F)CC3)cc21 [Example 14]
4,3,–,–,Cn1c(Nc2c(Cl)ccc(CNC(=O)C(C)(C)C)c2Cl)nc2cc(C(=O)N[C@H]3CC[C@H](C(F)(F)F)CC3)c(N3CC[C@H](F)C3)cc21 [Example 18]
1,3,–,–,Cn1c(Nc2c(Cl)ccc(CNC(=O)C(C)(C)C)c2Cl)nc2cc(C(=O)N[C@H]3CC[C@H](C(F)(F)F)CC3)c(N3CC[C@@H](F)C3)cc21 [Example 19]
2.5,4,–,–,Cn1c(Nc2c(Cl)ccc(CNC(=O)C(C)(C)C)c2Cl)nc2cc(C(=O)N[C@H]3CC[C@H](C(F)(F)F)CC3)c(N3CC(F)(F)C3)cc21 [Example 21]
1.5,5,–,–,Cn1c(Nc2c(Cl)ccc(CNC(=O)C(C)(C)C)c2Cl)nc2cc(C(=O)N[C@H]3CC[C@H](C(F)(F)F)CC3)c(N3CC4CC4C3)cc21 (stereo partly shown) [Example 22]
44,5,–,–,Cn1c(Nc2c(Cl)ccc(CNC(=O)C(C)(C)C)c2Cl)nc2cc(C(=O)N[C@H]3CC[C@H](C(F)(F)F)CC3)c(N3CCn4cncc4C3)cc21 [Example 24]
12,4,–,–,CN1CCN(c2cc3c(cc2C(=O)N[C@H]2CC[C@H](C(F)(F)F)CC2)nc(Nc2c(Cl)ccc(CNC(=O)C(C)(C)C)c2Cl)n3C)CC1=O [Example 25]
–,2,–,–,Cn1c(Nc2c(Cl)ccc(CNC(=O)C(C)(C)C)c2Cl)nc2cc(C(=O)N[C@H]3CC[C@H](C(F)(F)F)CC3)c(N3CC4CCC3C4)cc21 (stereo partly shown) [Example 127]
–,3,–,–,CC(C)(O)Cn1c(Nc2c(Cl)ccc(CNC(=O)C(C)(C)C)c2Cl)nc2cc(C(=O)N[C@H]3CC[C@H](C(F)(F)F)CC3)c(N3CCOCC3)cc21 [Example 168]
